Experiment [1] has as its system rat hepatic stellate cells. The experiment is described as follows: Morphology and detachment of culture-activated rat hepatic stellate cells (light microscopy). Type of experiment: cell-based. The text has this: (§1) Rat hepatic stellate cells (HSCs) were isolated by pronase/collagenase perfusion and purified by isopycnic density centrifugation in Opti-prep™ (Nycomed, Amersham, England) and elutriation essentially as previously described (Bahr et al., Hepatology (1999) 29:839-848). Human hepatic stellate cells were isolated from discarded resected liver via a similar protocol (Trim et al., J. Biol. Chem., (2000) 275:6657-6663). The use of human liver tissue for scientific investigation was approved by the UK South and West Local Research Ethics Committee and was subject to patient consent.
(§2) It has been shown recently that liver myofibroblasts may contribute to liver fibrogenesis and that liver myofibroblasts may have the potential to contaminate passaged hepatic stellate cell cultures (Knittel et al., Gastronenterology, (1999) 117:1205-1221). In this study, only primary cultures of hepatic stellate cells were used, which were desmin and glial fibrillary acid protein positive (markers shown to be expressed in hepatic stellate cells, but not liver myofibroblasts—Knittel et al., supra).
Cells were treated with gliotoxin dissolved in DMSO vehicle (added to medium from a 2000-fold molar concentrated stock). Control cells received DMSO vehicle only (i.e., 0.05% vol/vol). All other additions to culture medium were made from concentrated stocks dissolved in DMSO or by direct addition to culture medium. Protein contents of wells were determined using the Lowry assay (Lowry et al., J. Biol. Chem., (1951)193: 265-275).
Culture activated rat (14 day) and human (24 day) hepatic stellate cells were treated with DMSO solvent control or 1.5 μMol/L gliotoxin. […] Hepatic stellate cells changed from a flattened fibroblastic phenotype with distinct cell-cell interfaces to a substratum detached, rounded, and blebbed morphology.

Experiment [2] has as its system human hepatic stellate cells. Nature of the experiment: Morphology of culture-activated human hepatic stellate cells (light microscopy). Type of experiment: cell-based.
Text: as §1, §2
Cells were treated with gliotoxin dissolved in DMSO vehicle (added to medium from a 2000-fold molar concentrated stock). Control cells received DMSO vehicle only (i.e., 0.05% vol/vol). […] Protein contents of wells were determined using the Lowry assay (Lowry et al., J. Biol. Chem., (1951)193: 265-275). […]

The test system of experiment [3] is rat hepatic stellate cells. The experiment is described as follows: Low molecular weight DNA fragmentation (nucleosomal ladder) in rat hepatic stellate cells. Type of experiment: cell-based. Here is the method:
Hepatic stellate cells cultured in 35-mm diameter dishes (Greiner) were harvested, pelleted by centrifugation and DNA fragmentation determined as outlined elsewhere (Elsharkawy et al., Hepatology (1999) 30:761-769). Propidium Iodide Flow-Activated Cell Sorting Analysis Detached cells were pelleted by centrifugation, washed in PBS, and resuspended in HYPO buffer (0.1% wt/vol) Na3Citrate and 0.1% (wt/vol) Triton™ X-100 containing […] propidium iodide and incubated for 1 hour. The cells were then analyzed by fluorescence-activated cell sorter (FACS) with a Becton Dickinson (San Jose, Calif.) FACScan instrument using a 488 nm excitation wavelength with a band pass filter set at 530 nm. Attached cells were scraped in HYPO buffer after washing cells with PBS.
The effect of gliotoxin on the cleavage of DNA to a nucleosomal ladder was examined because this phenomenon is characteristic of apoptosis. Culture activated (14-day) rat hepatic stellate cells in six well plates were treated with either 0.05% (vol/vol) DMSO for four hours or 1.5 μmol/L gliotoxin for zero hours, half an hour, one hour, two hours or four hours. At each time point, both detached and attached cells were harvested together and low molecular weight DNA (20,000 g supernatant) fragmentation determined as outlined in the materials and methods section. At least three separate experiments were performed. 1 kilobase DNA ladder (Promega) was used as a molecular weight marker.
The effect of various compounds on DNA laddering was then determined. Culture-activated (14-day) rat hepatic stellate cells in six-well plates were treated with:
After fours hours of treatment, DNA fragmentation was determined.
Culture activated (14 day) rat hepatic stellate cells in six well plates were treated with: • (a) 0.05% (vol/vol) DMSO; • (b) 1.5 μmol/L gliotoxin; • (c) 1.5 μmol/L gliotoxin with 100 μmol/L tamoxifen; • (d) 1.5 μmol/L gliotoxin with […] actinomycin d; • (e) 1.5 μmol/L gliotoxin with 10 μmol/L cycloheximide; • (f) 1.5 μmol/L gliotoxin with 10 μmol/L cyclosporin; • (g) 1.5 μmol/L gliotoxin with […] m-iodobenzylguanidine; • (h) 1.5 μmol/L gliotoxin with 50 μmol/L quin-2-am; • (i) 50 μmol/L guin-2-am alone; • (j) 250 μmol/L m-iodobenzylguanidine; • (k) 10 μmol/L cyclosporin; • (l) 10 μmol/L cycloheximide; • (m) 1 μg/ml actinomycin d; or • (n) 100 μmol/L tamoxifen.
After four hours of treatment, DNA fragmentation was determined as outlined in Materials and Methods.

For a further experiment, the system named is hepatic stellate cells. Nature of the experiment: Nerve growth factor induced apoptosis of hepatic stellate cells. In kind it is cell-based. Particulars: NGF 100 ng/ml, absolute serum deprivation. Here is the method: Apoptosis of hepatic stellate cells was induced by absolute serum deprivation, cycloheximide treatment (Issa et al., Gut (2001) 48: S48-S57), or exposure to nerve growth factor as previously described (Trim et al., Am. J. Pathol., (2000) 156, 1235-1243). Hepatic stellate cells were cultured in 24-well tissue culture plates. Rat and human hepatic stellate cells were exposed to proapoptotic stimuli with and without recombinant TIMP-1 (Biogenesis, Poole, UK) and other manipulations as detailed below. Following a 4 hour incubation at 37° C., nuclear morphology was assessed by adding acridine orange to each well (final concentration 1 μg/ml) and observing the cells under blue fluorescence. The total number of apoptotic bodies was counted, and any apoptotic bodies floating in the supernatant were included by racking up the objective lens. The total number of cells per field was counted, and an apoptotic index was calculated. Each condition was performed in duplicate, and three high power fields were counted for each well. […] To examine for autocrine effects, hepatic stellate cells were incubated for 18 hours with azide-free polyclonal neutralizing antibodies to TIMP-1 and a nonimmune IgG control (Santa Cruz Biotechnology, Inc., Santa Cruz, Calif.), and responses were assessed by acridine orange staining and counting. […]

Another experiment has as its target MMP-3 (Homo sapiens, UniProt P08254). As to conditions: T2G versus wild type; cited from earlier work.
The test system of experiment [4] is human hepatic stellate cells. Nature of the experiment: Hepatic stellate cell apoptosis by acridine orange staining and counting (cycloheximide or serum deprivation), human cells. In kind it is cell-based. Particulars: human HSC; protein at 142.5 ng/ml. How it is done: (§3) Human hepatic stellate cells were extracted from the margins of normal human liver resected for colonic metastatic disease as previously described (Iredale et al., Clin. Sci., (1995) 89: 75-81). Rat hepatic stellate cells were extracted from normal rat liver by Pronase and collagenase digestion and purified by centrifugal elutriation as described (Arthur et al., J. Clin. Invest., (1989) 84:1076-1085). Extracted hepatic stellate cells were cultured on plastic until they were activated to a myofibroblastic phenotype after 7 to 10 days. Human and rat hepatic stellate cells were used for experiments after activation in primary culture or before fourth passage. Cells were cultured in Dulbecco's modified Eagle's medium in the presence of 16% fetal calf serum and antibiotics.
Apoptosis of hepatic stellate cells was induced by absolute serum deprivation, cycloheximide treatment (Issa et al., Gut (2001) 48: S48-S57), or exposure to nerve growth factor as previously described (Trim et al., Am. J. Pathol., (2000) 156, 1235-1243). Hepatic stellate cells were cultured in 24-well tissue culture plates. […] Following a 4 hour incubation at 37° C., nuclear morphology was assessed by adding acridine orange to each well (final concentration 1 μg/ml) and observing the cells under blue fluorescence. The total number of apoptotic bodies was counted, and any apoptotic bodies floating in the supernatant were included by racking up the objective lens. The total number of cells per field was counted, and an apoptotic index was calculated. Each condition was performed in duplicate, and three high power fields were counted for each well. […] To examine for autocrine effects, hepatic stellate cells were incubated for 18 hours with azide-free polyclonal neutralizing antibodies to TIMP-1 and a nonimmune IgG control (Santa Cruz Biotechnology, Inc., Santa Cruz, Calif.), and responses were assessed by acridine orange staining and counting.
Apoptosis was assessed by acridine orange staining. […]

In experiment [5] the test system is caspase-3 activity in hepatic stellate cells. The experiment is described as follows: Caspase-3 activity in cycloheximide-treated hepatic stellate cells. Type of experiment: cell-based. As to conditions: wild type TIMP-1 or T2G mutant N-TIMP-1. How it is done: Apoptosis was quantified by a colorimetric assay for caspase-3 activity (Promega) according to the manufacturer's instructions.
Caspase-3 is a central caspase in the proapoptotic cascade (Hengartner, Nature (2000) 407, 770-776) and can be used as an alternative assay to assess apoptosis. Hepatic stellate cells were cultured in 50 μM cycloheximide with TIMP-1 at a concentration of 0, 1, 10, or 100 ng/ml. Controls where cells were incubated with either the caspase 3 inhibitor benzyloxycarbonyl-Val-Ala-Asp-fluoromethylketone or serum alone were also performed. Data are expressed as mean ±S.E. and are presented as percentage of control given the arbitrary value of 100%. * indicates p<0.001; n=3. […] Although the mean caspase-3 activity of the cells treated with 10 ng/ml TIMP-1 was slightly lower than that treated with 100 ng/ml of TIMP-1, this was not statistically significant (p=0.67 by Student's t test).

Experiment [6] deals with rat hepatic stellate cells. The experiment is described as follows: Hepatic stellate cell apoptosis by acridine orange staining and counting (cycloheximide or serum deprivation), rat cells. Type of experiment: cell-based. Particulars: rat HSC; protein at 142.5 ng/ml. How it is done: as §3
Apoptosis of hepatic stellate cells was induced by absolute serum deprivation, cycloheximide treatment (Issa et al., Gut (2001) 48: S48-S57), or exposure to nerve growth factor as previously described (Trim et al., Am. J. Pathol., (2000) 156, 1235-1243). Hepatic stellate cells were cultured in 24-well tissue culture plates. Rat and human hepatic stellate cells were exposed to proapoptotic stimuli with and without recombinant TIMP-1 (Biogenesis, Poole, UK) and other manipulations as detailed below. Following a 4 hour incubation at 37° C., nuclear morphology was assessed by adding acridine orange to each well (final concentration 1 μg/ml) and observing the cells under blue fluorescence. The total number of apoptotic bodies was counted, and any apoptotic bodies floating in the supernatant were included by racking up the objective lens. The total number of cells per field was counted, and an apoptotic index was calculated. Each condition was performed in duplicate, and three high power fields were counted for each well. […] To examine for autocrine effects, hepatic stellate cells were incubated for 18 hours with azide-free polyclonal neutralizing antibodies to TIMP-1 and a nonimmune IgG control (Santa Cruz Biotechnology, Inc., Santa Cruz, Calif.), and responses were assessed by acridine orange staining and counting.
Apoptosis was assessed by acridine orange staining. […] A normal cell lies adjacent to the apoptotic body. This technique was used to determine the percentage of apoptotic hepatic stellate cells following exposure to cyclohexamide in the presence or absence of TIMP-1. Hepatic stellate cells were exposed to 50 μM cyclohexamide and 0, 1, 10, 100 or 200 ng/ml of TIMP-1. Cells treated with serum alone were used as controls. […] Bovine serum albumin, used as a carrier for the TIMP-1 had no antiapoptotic effect.

Sequence of MMP-3 (P08254 100-477, species assumed): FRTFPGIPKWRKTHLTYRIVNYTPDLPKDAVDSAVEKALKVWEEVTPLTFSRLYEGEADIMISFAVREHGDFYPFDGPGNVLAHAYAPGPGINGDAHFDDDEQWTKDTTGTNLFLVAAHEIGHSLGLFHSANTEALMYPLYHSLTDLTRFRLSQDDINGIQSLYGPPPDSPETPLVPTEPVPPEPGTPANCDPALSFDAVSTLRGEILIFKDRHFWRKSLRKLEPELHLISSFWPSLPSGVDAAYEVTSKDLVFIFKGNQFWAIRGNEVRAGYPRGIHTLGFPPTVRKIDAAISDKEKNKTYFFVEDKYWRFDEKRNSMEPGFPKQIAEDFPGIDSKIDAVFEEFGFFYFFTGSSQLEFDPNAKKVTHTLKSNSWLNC

Turning to `CS[C@]1(CO)C(=O)N2[C@H]3C(=CC=C[C@@H]3O)C[C@@]2(SC)C(=O)N1C` [mt-glio, bis-dethio-bis(methylthio)-gliotoxin], the morphologic alterations result in experiment [1] (culture activated (14 day) rat HSC, 1.5 μmol/L) is on record as “had no effect on the morphology”; in experiment [2] (culture activated (24 day) human HSC, 1.5 μmol/L), “had no effect on the morphology”. For the same compound, the “cleavage of DNA to a nucleosomal ladder” value in experiment [3] (rat HSC, 1.5 μmol/L, up to four hours) is given as “did not result in the cleavage of DNA to a nucleosomal ladder”.

`S=C(S)N1CCCC1` [pyrrolidine dithiocarbamate]: the “effect on morphologic alterations / detachment caused by gliotoxin” value in experiment [1] (rat HSC, with 1.5 μmol/L gliotoxin, Z-VAD-FMK 100 μmol/L, PDTC 300 μmol/L, tamoxifen 100 μmol/L, m-IBG 250 (mmol/L in the source), quin-2-am 50 μmol/L) was “blocked the morphologic effects of gliotoxin”. Moreover, the “effect on morphologic effects of gliotoxin” value in experiment [2] (human HSC, cotreatment with gliotoxin) is reported as “blocked the morphologic effects of gliotoxin”. The “effect on gliotoxin-induced cleavage of DNA to a nucleosomal ladder” value in experiment [3] (with 1.5 μmol/L gliotoxin, four hours, PDTC 300 μmol/L, tamoxifen 100 μmol/L, m-IBG 250 (mmol/L in the source), cyclosporin 10 μmol/L, quin-2-am 50 μmol/L) is listed as “blocks the cleavage of DNA to a nucleosomal ladder”.

For “NGF: nerve growth factor, ligand of p75 on hepatic stellate cells”, the “apoptosis in hepatic stellate cells versus BSA carrier alone” value with hepatic stellate cells was “induced significantly more apoptosis”.

For the compound “T2G mutant N-TIMP-1: mutated nonfunctional TIMP-1, threonine to glycine at amino acid position 2, no MMP inhibitory activity”, the “factor by which the mutation changes the inhibition constant of TIMP-1 for MMP-3” value with MMP-3 is given as “over 1000”. Also, the “apoptosis induced by cycloheximide (acridine orange)” value in experiment [4] and in experiment [6] was “had no inhibitory effect” each time. Also, in experiment [5], the “caspase-3 activity in cycloheximide-treated hepatic stellate cells” value is given as “no effect was observed”.

The values above are taken from US20080220056A1, “Treatment for liver disease” (UNIVERSITY OF SOUTHAMPTON, priority 2002, published 2008).
